Test results as given in patent US4068070A, “α-Cyanoamine compounds and a process for producing the same” (Fuji Chemical Industry Co., Ltd., priority 1974, dated 1978).

How the values were obtained:
Assay type in all cases: in vivo, mongrel adult dogs
[1] = test system: aortic blood flow; assay: Effects on aortic blood flow
Method: (§1) All experiments were made on male and female thoractomized mongrel adult dogs weighing about 10 kg. under anesthesia with pentobarbital sodium. Compounds A, D, E and F were suspended in 0.2% CMC solution, Compound B dissolved in hydrochloric acid solution (pH 6), and Compound C and active placebo being dissolved in physiological saline solution. Animals were administered the drug intravenously on brachiuma with either test compound or active placebo.
(§2) Arterial blood pressure was measured by pressure transducer (Nippon Koden MPU-0.5) connected with the cannula inserted from exposed carotid artery into aorta. Aortic blood flow was determined by means of electromagnetic flow meter (Nippon Koden MF-5) mounted at the origin of the aorta. Coronary sinus out flow and coronary sinus oxygen tension were assessed by means of electromagnetic flow meter (Nippon Koden MF-5) and P02 macro electrode (Beokmann Moder 160-C), respectively using Morawitz cannulization technique. Heart rate was measured by cardiotachometer (Nippon Koden RT-2) synchronized with systolic blood pressure of aorta.

[2] = test system: arterial mean blood pressure; assay: Effects on arterial mean blood pressure
Method: as §1, §2

[3] = test system: heart rate; assay: Effects on heart rate
Method: as §1, §2

COc1ccc(C(C#N)N2CCN(CC=Cc3ccccc3)CC2)cc1OC (stereo not shown) [Compound D]
Changes (%) of basal values, aortic blood flow ([1]; 6.0 mg/kg i.v., 30 min): 0%
Changes (%) of basal values, aortic blood flow ([1]; 6.0 mg/kg i.v., 40 min): 0%
Changes (%) of basal values, aortic blood flow ([1]; 6.0 mg/kg i.v., imm.): +12.0%
Changes (%) of basal values, aortic blood flow ([1]; 20.0 mg/kg i.v., 1 min): +16.3%
Changes (%) of basal values, aortic blood flow ([1]; 20.0 mg/kg i.v., 5 min): -3.8%
Changes (%) of basal values, aortic blood flow ([1]; 20.0 mg/kg i.v., 10 min): -4.0%
Changes (%) of basal values, aortic blood flow ([1]; 20.0 mg/kg i.v., 20 min): -3.4%
Changes (%) of basal values, aortic blood flow ([1]; 20.0 mg/kg i.v., 30 min): -1.8%
Changes (%) of basal values, aortic blood flow ([1]; 20.0 mg/kg i.v., 40 min): -0.3%
Changes (%) of basal values, aortic blood flow ([1]; 20.0 mg/kg i.v., imm.): +27.4%
Effects on aortic blood flow (in words) ([1]; i.v., anesthetized dogs): an increase in blood flow immediately after administration, followed by a decrease in blood flow
Changes (%) of basal values, arterial mean blood pressure ([2]; 2.0 mg/kg i.v., 1 min): +1.6%
Changes (%) of basal values, arterial mean blood pressure ([2]; 2.0 mg/kg i.v., 5 min): -3.0%
Changes (%) of basal values, arterial mean blood pressure ([2]; 2.0 mg/kg i.v., 10 min): -1.5%
Changes (%) of basal values, arterial mean blood pressure ([2]; 2.0 mg/kg i.v., 20 min): -0.5%
Changes (%) of basal values, arterial mean blood pressure ([2]; 2.0 mg/kg i.v., 30 min): 0%
Changes (%) of basal values, arterial mean blood pressure ([2]; 2.0 mg/kg i.v., 40 min): 0%
Changes (%) of basal values, arterial mean blood pressure ([2]; 2.0 mg/kg i.v., imm.): -13.6%
Changes (%) of basal values, arterial mean blood pressure ([2]; 6.0 mg/kg i.v., 1 min): -9.7%
Changes (%) of basal values, arterial mean blood pressure ([2]; 6.0 mg/kg i.v., 5 min): -10.3%
Changes (%) of basal values, arterial mean blood pressure ([2]; 6.0 mg/kg i.v., 10 min): -10.0%
Changes (%) of basal values, arterial mean blood pressure ([2]; 6.0 mg/kg i.v., 20 min): -6.0%
Changes (%) of basal values, arterial mean blood pressure ([2]; 6.0 mg/kg i.v., 30 min): -3.0%
Changes (%) of basal values, arterial mean blood pressure ([2]; 6.0 mg/kg i.v., 40 min): -1.0%
Changes (%) of basal values, arterial mean blood pressure ([2]; 6.0 mg/kg i.v., imm.): -36.1%
Changes (%) of basal values, arterial mean blood pressure ([2]; 20.0 mg/kg i.v., 1 min): -19.7%
Changes (%) of basal values, arterial mean blood pressure ([2]; 20.0 mg/kg i.v., 5 min): -14.4%
Changes (%) of basal values, arterial mean blood pressure ([2]; 20.0 mg/kg i.v., 10 min): -13.5%
Changes (%) of basal values, arterial mean blood pressure ([2]; 20.0 mg/kg i.v., 20 min): -8.3%
Changes (%) of basal values, arterial mean blood pressure ([2]; 20.0 mg/kg i.v., 30 min): -5.1%
Changes (%) of basal values, arterial mean blood pressure ([2]; 20.0 mg/kg i.v., 40 min): -3.1%
Changes (%) of basal values, arterial mean blood pressure ([2]; 20.0 mg/kg i.v., imm.): -45.0%
Effects on arterial mean blood pressure (in words) ([2]; i.v., anesthetized dogs): hypotensive effects being proportioned to their doses which were of long duration
Changes(%) of basal values, heart rate ([3]; 2.0 mg/kg i.v., 1 min): +1.0%
Changes(%) of basal values, heart rate ([3]; 2.0 mg/kg i.v., 5 min): 0%
Changes(%) of basal values, heart rate ([3]; 2.0 mg/kg i.v., 10 min): 0%
Changes(%) of basal values, heart rate ([3]; 2.0 mg/kg i.v., 20 min): 0%
Changes(%) of basal values, heart rate ([3]; 2.0 mg/kg i.v., 30 min): 0%
Changes(%) of basal values, heart rate ([3]; 2.0 mg/kg i.v., 40 min): 0%
Changes(%) of basal values, heart rate ([3]; 2.0 mg/kg i.v., imm.): -0.6%
Changes(%) of basal values, heart rate ([3]; 6.0 mg/kg i.v., 1 min): +1.5%
Changes(%) of basal values, heart rate ([3]; 6.0 mg/kg i.v., 5 min): -0.9%
Changes(%) of basal values, heart rate ([3]; 6.0 mg/kg i.v., 10 min): -1.6%
Changes(%) of basal values, heart rate ([3]; 6.0 mg/kg i.v., 20 min): -1.0%
Changes(%) of basal values, heart rate ([3]; 6.0 mg/kg i.v., 30 min): -0.5%
Changes(%) of basal values, heart rate ([3]; 6.0 mg/kg i.v., 40 min): 0%
Changes(%) of basal values, heart rate ([3]; 6.0 mg/kg i.v., imm.): -1.5%
Changes(%) of basal values, heart rate ([3]; 20.0 mg/kg i.v., 1 min): -3.1%
Changes(%) of basal values, heart rate ([3]; 20.0 mg/kg i.v., 5 min): -3.5%
Changes(%) of basal values, heart rate ([3]; 20.0 mg/kg i.v., 10 min): -3.9%
Changes(%) of basal values, heart rate ([3]; 20.0 mg/kg i.v., 20 min): -2.8%
Changes(%) of basal values, heart rate ([3]; 20.0 mg/kg i.v., 30 min): -1.3%
Changes(%) of basal values, heart rate ([3]; 20.0 mg/kg i.v., 40 min): -0.5%
Changes(%) of basal values, heart rate ([3]; 20.0 mg/kg i.v., imm.): -14.5%
Effects on heart rate (in words) ([3]; i.v., anesthetized dogs): a slight negative chronotropic effect
